Experimental data as given in patent US7183267B2, “β-lactamase inhibitors and methods of use thereof” (priority 2003, dated 2007).

System: methicillin resistant S. aureus from Stanford University Hospital (MRSA-SU)
Assay: Matrix system: oxacillin plus β-lactamase inhibitor, MRSA-SU
Assay type: cell-based
Experimental: To each well of a 96 well microtiter plate was added 47.5 μl of MHB. A volume of 2.5 μl of each dilution of oxacillin was then transferred to appropriate wells containing the medium. All wells, except the sterility control wells, were then inoculated with 50 μl of a diluted cell suspension to give a final volume of 100 μl and a final cell density of 5×10^4 CFU/well. The volume in the sterility control wells was adjusted to 100 μl with MHB. A sterile pipette tip was used to mix the contents of each well (one tip was used going from the low to the high concentration in the same column). The microtiter plates were covered with the lids and were placed in large Stratagene Big Blue plates (Cat. # 400041). Four large kimwipes moistened with tap water were placed near the edges of the Stratagene plates to prevent evaporation of the medium. The microtiter plates were incubated for at least 24 hours at 35° C. The plates were then evaluated for growth in each well. Controls included: medium sterility and negative control (medium and bacteria only).
A numerical code was used to evaluate the extent of growth as indicated below. • 0: absence of growth • 1: barely visible (faint) growth • 2: fair growth but less than the negative solvent control • 3: growth is equivalent to the negative solvent control.
The lowest dose at which no visible growth is observed was determined to be the MIC value.
The effect of the four compounds of the present invention on oxacillin resistance of the MRSA strains was determined using a matrix system. The β-lactamase inhibitors were tested at 5 doses against up to eleven concentrations of oxacillin. […] A 96-well microtiter plate was used for the matrix system. The procedure was identical to that described above for the MIC determination, with the exception that both oxacillin and one each of the β-lactamase inhibitors was added, 2.5 μl each, to the wells prior to addition of the test organisms.
Matrix Study:Oxacillin and Compound FL201 with MRSA-SU
Matrix Study: Oxacillin and Compound FL202 with MRSA-SU

COC(=O)c1cc(B(O)O)cc([N+](=O)[O-])c1 [Compound F1202]
MIC (oxacillin) (Table 18, in presence of F1202 16 μg/ml): 64 µg/mL
MIC (oxacillin) (Table 18, in presence of F1202 32 μg/ml): 4 µg/mL
MIC (oxacillin) (Table 18, in presence of F1202 64 μg/ml): 1 µg/mL
MIC (oxacillin) (Table 18, in presence of F1202 128 μg/ml): 0.25 µg/mL
growth score (Table 18, oxacillin 0, F1202 16 μg/ml): 3
growth score (Table 18, oxacillin 0, F1202 32 μg/ml): 3
growth score (Table 18, oxacillin 0, F1202 64 μg/ml): 3
growth score (Table 18, oxacillin 0, F1202 128 μg/ml): 1
growth score (Table 18, oxacillin 0, F1202 256 μg/ml): 0
growth score (Table 18, oxacillin 0.064 μg/ml + F1202 16 μg/ml): 1
growth score (Table 18, oxacillin 0.064 μg/ml + F1202 32 μg/ml): 1
growth score (Table 18, oxacillin 0.064 μg/ml + F1202 64 μg/ml): 1
growth score (Table 18, oxacillin 0.064 μg/ml + F1202 128 μg/ml): 1
growth score (Table 18, oxacillin 0.064 μg/ml + F1202 256 μg/ml): 0
growth score (Table 18, oxacillin 0.125 μg/ml + F1202 16 μg/ml): 1
growth score (Table 18, oxacillin 0.125 μg/ml + F1202 32 μg/ml): 1
growth score (Table 18, oxacillin 0.125 μg/ml + F1202 64 μg/ml): 1
growth score (Table 18, oxacillin 0.125 μg/ml + F1202 128 μg/ml): 1
growth score (Table 18, oxacillin 0.125 μg/ml + F1202 256 μg/ml): 0
growth score (Table 18, oxacillin 0.25 μg/ml + F1202 16 μg/ml): 1
growth score (Table 18, oxacillin 0.25 μg/ml + F1202 32 μg/ml): 1
growth score (Table 18, oxacillin 0.25 μg/ml + F1202 64 μg/ml): 1
growth score (Table 18, oxacillin 0.25 μg/ml + F1202 128 μg/ml): 0
growth score (Table 18, oxacillin 0.25 μg/ml + F1202 256 μg/ml): 0
growth score (Table 18, oxacillin 0.5 μg/ml + F1202 16 μg/ml): 1
growth score (Table 18, oxacillin 0.5 μg/ml + F1202 32 μg/ml): 1
growth score (Table 18, oxacillin 0.5 μg/ml + F1202 64 μg/ml): 1
growth score (Table 18, oxacillin 0.5 μg/ml + F1202 128 μg/ml): 0
growth score (Table 18, oxacillin 0.5 μg/ml + F1202 256 μg/ml): 0
growth score (Table 18, oxacillin 1 μg/ml + F1202 16 μg/ml): 1
growth score (Table 18, oxacillin 1 μg/ml + F1202 32 μg/ml): 1
growth score (Table 18, oxacillin 1 μg/ml + F1202 64 μg/ml): 0
growth score (Table 18, oxacillin 1 μg/ml + F1202 128 μg/ml): 0
growth score (Table 18, oxacillin 1 μg/ml + F1202 256 μg/ml): 0
growth score (Table 18, oxacillin 2 μg/ml + F1202 16 μg/ml): 1
growth score (Table 18, oxacillin 2 μg/ml + F1202 32 μg/ml): 1
growth score (Table 18, oxacillin 2 μg/ml + F1202 64 μg/ml): 0
growth score (Table 18, oxacillin 2 μg/ml + F1202 128 μg/ml): 0
growth score (Table 18, oxacillin 2 μg/ml + F1202 256 μg/ml): 0
growth score (Table 18, oxacillin 4 μg/ml + F1202 16 μg/ml): 1
growth score (Table 18, oxacillin 4 μg/ml + F1202 32 μg/ml): 0
growth score (Table 18, oxacillin 4 μg/ml + F1202 64 μg/ml): 0
growth score (Table 18, oxacillin 4 μg/ml + F1202 128 μg/ml): 0
growth score (Table 18, oxacillin 4 μg/ml + F1202 256 μg/ml): 0
growth score (Table 18, oxacillin 16 μg/ml + F1202 16 μg/ml): 1
growth score (Table 18, oxacillin 16 μg/ml + F1202 32 μg/ml): 0
growth score (Table 18, oxacillin 16 μg/ml + F1202 64 μg/ml): 0
growth score (Table 18, oxacillin 16 μg/ml + F1202 128 μg/ml): 0
growth score (Table 18, oxacillin 16 μg/ml + F1202 256 μg/ml): 0
growth score (Table 18, oxacillin 64 μg/ml + F1202 16 μg/ml): 0
growth score (Table 18, oxacillin 64 μg/ml + F1202 32 μg/ml): 0
growth score (Table 18, oxacillin 64 μg/ml + F1202 64 μg/ml): 0
growth score (Table 18, oxacillin 64 μg/ml + F1202 128 μg/ml): 0
growth score (Table 18, oxacillin 64 μg/ml + F1202 256 μg/ml): 0
growth score (Table 18, oxacillin 128 μg/ml + F1202 16 μg/ml): 0
growth score (Table 18, oxacillin 128 μg/ml + F1202 32 μg/ml): 0
growth score (Table 18, oxacillin 128 μg/ml + F1202 64 μg/ml): 0
growth score (Table 18, oxacillin 128 μg/ml + F1202 128 μg/ml): 0
growth score (Table 18, oxacillin 128 μg/ml + F1202 256 μg/ml): 0
growth score (Table 18, oxacillin 256 μg/ml + F1202 16 μg/ml): 0
growth score (Table 18, oxacillin 256 μg/ml + F1202 32 μg/ml): 0
growth score (Table 18, oxacillin 256 μg/ml + F1202 64 μg/ml): 0
growth score (Table 18, oxacillin 256 μg/ml + F1202 128 μg/ml): 0
growth score (Table 18, oxacillin 256 μg/ml + F1202 256 μg/ml): 0
